# Reference: the supplement of paper PMC10307832
# What was measured:
# Test in all cases: relative viability (nuclei count vs DMSO), 5 days (fraction); higher = more cells survive
# [1] = compound: CN(C)CC1=CC(=CC=C1)N=C(C2=CC=CC=C2)C3=C(NC4=C3C=CC(=C4)C(=O)N(C)C)O + CS(=O)(=O)CCNCc1ccc(-c2ccc3ncnc(Nc4ccc(OCc5cccc(F)c5)c(Cl)c4)c3c2)o1 [Lapatinib] (partner 2 µM)
# Outline: (§1)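 Nuclei were stained with Hoechst during a one-step fixation (final 0.05% Triton X-100, 1% formaldehyde, 1 ug/ml Hoechst) carried out 5 days after dosing, then counted on 4× images. The cells, lung cancer lines in 1536-well plates, had been dosed by pin tool the day after seeding with one drug alone or a fixed anchor-drug dose plus five library-drug doses (not always all listed) in √10 steps. Relative viability is the nuclei count in treated wells divided by that in vehicle wells, and each value is the median of duplicate plates.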
# [2] = compound: CN(C)CC1=CC(=CC=C1)N=C(C2=CC=CC=C2)C3=C(NC4=C3C=CC(=C4)C(=O)N(C)C)O + O=C(c1cc(Cc2n[nH]c(=O)c3ccccc23)ccc1F)N1CCN(C(=O)C2CC2)CC1 [Olaparib] (partner 8 µM)
# Outline: as §1
# [3] = compound: CN(C)CC1=CC(=CC=C1)N=C(C2=CC=CC=C2)C3=C(NC4=C3C=CC(=C4)C(=O)N(C)C)O + N=C(N)NC(=N)NCCc1ccccc1 [Phenformin] (partner 250 µM)
# Outline: as §1
# [4] = compound: CN(C)CC1=CC(=CC=C1)N=C(C2=CC=CC=C2)C3=C(NC4=C3C=CC(=C4)C(=O)N(C)C)O + CC(=O)Nc1cccc(-n2c(=O)n(C3CC3)c(=O)c3c(Nc4ccc(I)cc4F)n(C)c(=O)c(C)c32)c1 [Trametinib] (partner 0.02 µM)
# Outline: as §1
Cell Line,relative viability ([1]; first compound 0.08 µM),relative viability ([1]; first compound 0.253 µM),relative viability ([1]; first compound 0.8 µM),relative viability ([1]; first compound 2.53 µM),relative viability ([1]; first compound 8 µM),relative viability ([2]; first compound 0.08 µM),relative viability ([2]; first compound 0.253 µM),relative viability ([2]; first compound 0.8 µM),relative viability ([2]; first compound 2.53 µM),relative viability ([2]; first compound 8 µM),relative viability ([3]; first compound 0.08 µM),relative viability ([3]; first compound 0.253 µM),relative viability ([3]; first compound 0.8 µM),relative viability ([3]; first compound 2.53 µM),relative viability ([3]; first compound 8 µM),relative viability ([4]; first compound 0.08 µM),relative viability ([4]; first compound 0.253 µM),relative viability ([4]; first compound 0.8 µM),relative viability ([4]; first compound 2.53 µM),relative viability ([4]; first compound 8 µM)
HARA,0.794,0.842,0.686,0.803,0.744,0.622,1.03,0.762,0.758,0.967,0.413,0.454,0.384,0.412,0.373,0.715,0.632,0.622,0.59,0.84
HCC-78,0.785,1.48,0.722,0.707,0.741,0.599,0.816,0.776,0.742,0.862,0.642,0.812,0.675,0.698,0.738,0.79,0.708,0.868,0.785,0.65
NCI-H1792,0.866,0.896,0.873,0.818,0.945,0.536,0.452,0.479,0.387,0.422,0.255,0.211,0.357,0.179,0.231,0.473,0.371,0.485,0.501,0.425
NCI-H2347,1.01,0.899,0.975,0.953,0.963,0.536,0.584,0.593,0.572,0.575,0.436,0.46,0.368,0.454,0.467,0.301,0.26,0.278,0.252,0.33
NCI-H838,0.972,1.01,1.08,0.895,0.685,0.789,0.901,0.751,0.726,0.665,0.57,0.584,0.585,0.537,0.503,0.528,0.51,0.494,0.473,0.431
NCI-H2023,1.25,0.889,0.812,0.497,0.43,0.539,0.525,0.473,0.416,0.414,0.377,0.392,0.405,0.338,0.342,0.639,0.557,0.556,0.545,0.471
NCI-H1650,0.688,0.828,0.86,0.736,0.647,0.821,0.787,0.753,0.937,0.75,0.481,0.55,0.412,0.49,0.4,0.69,0.569,0.63,0.604,0.601
201T,0.95,1.01,1.01,1.02,0.981,0.829,0.801,0.839,0.817,0.721,0.437,0.449,0.416,0.428,0.41,0.71,0.693,0.73,0.716,0.657
NCI-H358,0.46,0.347,0.468,0.425,0.413,0.598,0.661,0.546,0.527,0.528,0.349,0.343,0.201,0.303,0.313,0.146,0.171,0.125,0.092,0.129
NCI-H1666,0.868,0.616,0.887,0.668,0.774,0.763,0.761,0.785,0.754,0.797,0.569,0.579,0.615,0.58,0.585,0.966,0.879,0.73,0.85,0.928
LXF-289,0.888,0.887,0.893,0.86,0.815,1.11,1.03,1.03,0.993,1.03,0.499,0.489,0.518,0.518,0.473,0.669,0.628,0.643,0.573,0.655
LC-2-ad,1.03,0.893,0.879,0.876,0.981,0.663,0.771,0.729,0.723,0.827,0.623,0.582,0.563,0.526,0.575,0.86,0.885,0.893,0.866,0.841
NCI-H1993,1.09,0.882,0.827,0.826,0.706,0.772,1.1,–,1.12,1.06,0.504,0.498,0.586,0.507,0.493,0.464,0.513,–,0.53,0.592
EKVX,0.196,0.294,0.205,0.224,0.23,0.83,0.781,–,0.837,0.862,0.239,0.251,0.221,0.247,0.241,0.32,0.389,–,0.432,0.438
NCI-H1437,0.839,0.772,0.978,0.775,0.835,0.621,0.659,0.634,0.622,0.635,0.269,0.298,0.335,0.349,0.36,0.574,0.53,0.475,0.572,0.656
PC-3 [JPC-3],0.436,0.458,0.435,0.465,0.444,1.12,1.05,1.01,1.12,1.11,0.446,0.485,0.428,0.46,0.496,0.709,0.681,0.653,0.678,0.702
